Test: recombinant UMI read abundance after kanamycin selection (control-corrected) (log10(CPM+1)); higher = more efficient recombination; extreme values may be limits of the assay; sequences stand for … in AGTGCAGAGAAAATCGGCCAGTTTTCTCTGCCTGCAGTCCGCATGCCGTGGGACCCCTTGGGTTCTAACCTGTTGCCTAGATTTATGCAGCGGACTGCCTTTCTCCCAAAGTGATAAACCGG…AGGTTGGTTTCACT; site = the 11-nt donor
How it was run: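 Two replicates each of selected and unselected plating were used in this pooled Escherichia coli screen of donor and donor-binding-loop pairs for the IS621 bridge recombinase. Selection was with IPTG (0.07 mM) and kanamycin. Counts of recombinant UMIs, amplified across the donor–target junction, were converted to CPM, averaged, scaled by control-derived factors and reported as log10(CPM+1).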
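Also: IS621 bridge recombinase in Escherichia coli cells against a fixed T5 target plasmid.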

Sequence	recombinant UMI read abundance (log10)
AGAACAACATGGACCGGTTTTCCCGGTAATCCGTATTTGTG (site AGAACAACTCA)	1.29
TCATACTCATGGACCGGTTTTCCCGGTAATCCGTATTTGCA (site TCGTACTCTTG)	2.35
ACCGCGGCATGGACCGGTTTTCCCGGTAATCCGTATTTGAT (site ACCGCGGCTAT)	1.78
CCTACTACATGGACCGGTTTTCCCGGTAATCCGTATTTGGC (site CCTACTACTGC)	0
CAATACTCATGGACCGGTTTTCCCGGTAATCCGTATTTGAA (site CAATACTCTTT)	3.09
GGATATACATGGACCGGTTTTCCCGGTAATCCGTATTTGAT (site GGATATACTAT)	2.03
AGTAAGGCATGGACCGGTTTTCCCGGTAATCCGTATTTGCT (site AGTAAGGCTAG)	2.75
ACCAGTCCATGGACCGGTTTTCCCGGTAATCCGTATTTGCG (site GATGCATCTTA)	0
GTTGAGGCATGGACCGGTTTTCCCGGTAATCCGTATTTGTG (site GTTGAGGCTCA)	1.07
CACCCCTCATGGACCGGTTTTCCCGGTAATCCGTATTTGCC (site CACTCCTCTGG)	1.21
GATTTGGCATGGACCGGTTTTCCCGGTAATCCGTATTTGTG (site AATTTGGCTCA)	0.142
TCCAATTCATGGACCGGTTTTCCCGGTAATCCGTATTTGCC (site TCCGATTCTGG)	0
ACAGGATCATGGACCGGTTTTCCCGGTAATCCGTATTTGCA (site ACAGAATCTTG)	2.47
TCATACCCATGGACCGGTTTTCCCGGTAATCCGTATTTGCA (site TCATACGCTTG)	0
CCTAAAGCATGGACCGGTTTTCCCGGTAATCCGTATTTGAA (site CCTAAAGCTAT)	0
TAGCTAGCATGGACCGGTTTTCCCGGTAATCCGTATTTGCA (site TAGCTAGCTTA)	0.178
TCCAATTCATGGACCGGTTTTCCCGGTAATCCGTATTTGCC (site TCCAATTCTCG)	0
GGTACCTCATGGACCGGTTTTCCCGGTAATCCGTATTTGTT (site GGTACGTCTAA)	0.014
GCTTCCCCATGGACCGGTTTTCCCGGTAATCCGTATTTGCA (site GCTTCCCCTTG)	1.15
ATGTAGGCATGGACCGGTTTTCCCGGTAATCCGTATTTGGC (site ATGAAGGCTGC)	2.35
TAAAGTCCATGGACCGGTTTTCCCGGTAATCCGTATTTGGA (site TAAAGTCCTTA)	0.0112
TAGCCTTCATGGACCGGTTTTCCCGGTAATCCGTATTTGGT (site TACCCTTCTAC)	0.00592
CTACCCGCATGGACCGGTTTTCCCGGTAATCCGTATTTGCT (site CTACCCGCTAG)	1.43
ACTGACACATGGACCGGTTTTCCCGGTAATCCGTATTTGAC (site ACTGACACTGT)	2.83
CAAAGGGCATGGACCGGTTTTCCCGGTAATCCGTATTTGTA (site CAAAGGGCTTA)	2.57

Sequence	recombinant UMI read abundance (log10)
CGCTAATCATGGACCGGTTTTCCCGGTAATCCGTATTTGCT (site CGATCATCTAG)	0
ATCTAAGCATGGACCGGTTTTCCCGGTAATCCGTATTTGAG (site ATCTAAGCTCT)	2.16
TGAGCTGCATGGACCGGTTTTCCCGGTAATCCGTATTTGTG (site TCAGCTGCTCA)	0
GTTTATCCATGGACCGGTTTTCCCGGTAATCCGTATTTGCT (site GCTTATCCTAG)	0
TGCTAGGCATGGACCGGTTTTCCCGGTAATCCGTATTTGGT (site TGCTAGGCTTC)	0.0129
CGATAAACATGGACCGGTTTTCCCGGTAATCCGTATTTGCT (site CGATAAACTAG)	2.83
ACACATCCATGGACCGGTTTTCCCGGTAATCCGTATTTGAC (site AAACATCCTGT)	0
TAGGAATCATGGACCGGTTTTCCCGGTAATCCGTATTTGAG (site TAGGAATCTCA)	2.32
CTCCTAACATGGACCGGTTTTCCCGGTAATCCGTATTTGGA (site CTACTAACTTC)	0.00356
ACTAGAACATGGACCGGTTTTCCCGGTAATCCGTATTTGAG (site ACTAGAACTAT)	0
TGCTAGGCATGGACCGGTTTTCCCGGTAATCCGTATTTGGT (site TACTAGGCTAC)	0.00634
TGTTCCCCATGGACCGGTTTTCCCGGTAATCCGTATTTGTA (site TGTTCTCCTTA)	0.0643
ATGAATACATGGACCGGTTTTCCCGGTAATCCGTATTTGCA (site AGGAAGACTTG)	0
TGGCCTGCATGGACCGGTTTTCCCGGTAATCCGTATTTGGC (site TGGCCCGCTGC)	0
GGCAGTCCATGGACCGGTTTTCCCGGTAATCCGTATTTGGG (site GGCAGTCCTCC)	0.00418
CCTAAAGCATGGACCGGTTTTCCCGGTAATCCGTATTTGTT (site CCTAAAGCTAG)	0
CCCGAGCCATGGACCGGTTTTCCCGGTAATCCGTATTTGCC (site CCCGAGCCTGG)	0
ACACTAACATGGACCGGTTTTCCCGGTAATCCGTATTTGTC (site ACACGAACTGA)	0
ACACATCCATGGACCGGTTTTCCCGGTAATCCGTATTTGAC (site ACATATCCTGT)	0.818
GGAAATCCATGGACCGGTTTTCCCGGTAATCCGTATTTGAA (site GGGAATCCTTT)	0
GAGCTGACATGGACCGGTTTTCCCGGTAATCCGTATTTGAT (site GAGCTCACTAT)	0.0113
TAAATAACATGGACCGGTTTTCCCGGTAATCCGTATTTGCT (site TAAATAACTAG)	0
ACTAGGACATGGACCGGTTTTCCCGGTAATCCGTATTTGAG (site ACTAGTACTCT)	0.226
CTTGCTTCATGGACCGGTTTTCCCGGTAATCCGTATTTGAT (site CTTGCTTCTAT)	0.0131
CCGCTACCATGGACCGGTTTTCCCGGTAATCCGTATTTGCT (site CGGCTACCTAG)	0

Sequence	recombinant UMI read abundance (log10)
CGTTCGGCATGGACCGGTTTTCCCGGTAATCCGTATTTGTC (site CGTTCGGCTGA)	0
TATTTGGCATGGACCGGTTTTCCCGGTAATCCGTATTTGTG (site TTTTTGGCTCA)	0.0282
GATTCTCCATGGACCGGTTTTCCCGGTAATCCGTATTTGCT (site GATTTTCCTAG)	0
AATGTGACATGGACCGGTTTTCCCGGTAATCCGTATTTGAC (site AATGTGCCTGT)	0
GAAGGTTCATGGACCGGTTTTCCCGGTAATCCGTATTTGTT (site GAAGGTTCTAA)	2.35
GTTAGAACATGGACCGGTTTTCCCGGTAATCCGTATTTGGA (site GTTAGAACTCC)	0.0329
CTGCTACCATGGACCGGTTTTCCCGGTAATCCGTATTTGCC (site CTGCTACCTTG)	0
TGTACACCATGGACCGGTTTTCCCGGTAATCCGTATTTGAC (site TGTACACCTGA)	0
CAGTGTACATGGACCGGTTTTCCCGGTAATCCGTATTTGCA (site CAGTGTACTTG)	2.48
AGGACGACATGGACCGGTTTTCCCGGTAATCCGTATTTGAC (site AGGACAACTGT)	2.09
CTATCATCATGGACCGGTTTTCCCGGTAATCCGTATTTGCT (site CCATCATCTAG)	0.932
GGTGTGTCATGGACCGGTTTTCCCGGTAATCCGTATTTGTG (site GGTGTGTCTCA)	1.16
CATAGCACATGGACCGGTTTTCCCGGTAATCCGTATTTGTA (site CATAGCACTTA)	1.96
GTAGCAGCATGGACCGGTTTTCCCGGTAATCCGTATTTGGA (site GTAGCAGCTTC)	0.62
AGAAACGCATGGACCGGTTTTCCCGGTAATCCGTATTTGCT (site AGAAAAGCTAG)	1.84
AGGGATCCATGGACCGGTTTTCCCGGTAATCCGTATTTGTT (site AGGGATCCTAA)	0.662
GCTCTGCCATGGACCGGTTTTCCCGGTAATCCGTATTTGCG (site GCTCTGCCTCG)	0.0154
CCAGGTGCATGGACCGGTTTTCCCGGTAATCCGTATTTGCT (site CCAGGTGCTAC)	0.00458
CGCTACACATGGACCGGTTTTCCCGGTAATCCGTATTTGCT (site CGCTACACTAG)	2.9
TGGCCGGCATGGACCGGTTTTCCCGGTAATCCGTATTTGGC (site TGGCCGGCTGA)	0
TGAGTGGCATGGACCGGTTTTCCCGGTAATCCGTATTTGGT (site GGAGTGGCTAC)	0.0161
TCATACTCATGGACCGGTTTTCCCGGTAATCCGTATTTGCA (site TAATACTCTTG)	1.45
CTTTTCTCATGGACCGGTTTTCCCGGTAATCCGTATTTGTA (site CTTATCTCTTA)	0
TAGTACTCATGGACCGGTTTTCCCGGTAATCCGTATTTGCA (site TAGTACTCTTG)	2.61
GGGGCACCATGGACCGGTTTTCCCGGTAATCCGTATTTGCA (site GGGGCACCTTG)	0

— the supplement of paper PMC11208160
